Measured values reported in patent publication US6737441B2, “Treatment of helicobacter with isothiocyanates” (priority 2000, dated 2004).
Where two headings read alike, the source gives them in different places.

What was measured:
[1] = tested on: clarithromycin and/or metronidazole - intermediate or resistant strains of Helicobacter pylori; assay: Bacteriostatic activity (MIC) against intermediate or resistant strains; assay type: cell-based
[2] = tested on: amoxicillin/clarithromycin/metronidazole - susceptible strains of Helicobacter pylori; assay: Bacteriostatic activity (MIC) against susceptible strains; assay type: cell-based
[3] = in cell culture; cited from earlier work
[4] = Helicobacter pylori, H. pylori strain no 33, read-out: MIC
[5] = Helicobacter pylori, H. pylori strain no 35, read-out: MIC
[6] = Helicobacter pylori, H. pylori strain no 36, read-out: MIC
[7] = Helicobacter pylori, H. pylori strain no 37, read-out: MIC
[8] = Helicobacter pylori, H. pylori strain no 39, read-out: MIC
[9] = Helicobacter pylori, H. pylori strain no 40, read-out: MIC
[10] = Helicobacter pylori, H. pylori strain no 41, read-out: MIC
[11] = Helicobacter pylori, H. pylori strain no 42, read-out: MIC
[12] = Helicobacter pylori, H. pylori strain no 43, read-out: MIC
[13] = Helicobacter pylori, H. pylori strain no 44, read-out: MIC
[14] = Helicobacter pylori, H. pylori strain no 45, read-out: MIC
[15] = Helicobacter pylori, H. pylori strain no 46, read-out: MIC
[16] = Helicobacter pylori, H. pylori strain no 47, read-out: MIC
[17] = Helicobacter pylori, H. pylori strain no 1, read-out: MIC
[18] = Helicobacter pylori, H. pylori strain no 2, read-out: MIC
[19] = Helicobacter pylori, H. pylori strain no 3, read-out: MIC
[20] = Helicobacter pylori, H. pylori strain no 4, read-out: MIC
[21] = Helicobacter pylori, H. pylori strain no 5, read-out: MIC
[22] = Helicobacter pylori, H. pylori strain no 6, read-out: MIC
[23] = Helicobacter pylori, H. pylori strain no 7, read-out: MIC
[24] = Helicobacter pylori, H. pylori strain no 8, read-out: MIC
[25] = Helicobacter pylori, H. pylori strain no 10, read-out: MIC
[26] = Helicobacter pylori, H. pylori strain no 11, read-out: MIC
[27] = Helicobacter pylori, H. pylori strain no 12, read-out: MIC
[28] = Helicobacter pylori, H. pylori strain no 13, read-out: MIC
[29] = Helicobacter pylori, H. pylori strain no 14, read-out: MIC
[30] = Helicobacter pylori, H. pylori strain no 15, read-out: MIC
[31] = Helicobacter pylori, H. pylori strain no 16, read-out: MIC
[32] = Helicobacter pylori, H. pylori strain no 17, read-out: MIC
[33] = Helicobacter pylori, H. pylori strain no 18, read-out: MIC
[34] = Helicobacter pylori, H. pylori strain no 19, read-out: MIC
[35] = Helicobacter pylori, H. pylori strain no 20, read-out: MIC
[36] = Helicobacter pylori, H. pylori strain no 22, read-out: MIC
[37] = Helicobacter pylori, H. pylori strain no 23, read-out: MIC
[38] = Helicobacter pylori, H. pylori strain no 24, read-out: MIC
[39] = Helicobacter pylori, H. pylori strain no 25, read-out: MIC
[40] = Helicobacter pylori, H. pylori strain no 26, read-out: MIC
[41] = Helicobacter pylori, H. pylori strain no 27, read-out: MIC
[42] = Helicobacter pylori, H. pylori strain no 28, read-out: MIC
[43] = Helicobacter pylori, H. pylori strain no 30, read-out: MIC
[44] = Helicobacter pylori, H. pylori strain no 31, read-out: MIC
[45] = Helicobacter pylori, H. pylori strain no 32, read-out: MIC
[46] = Helicobacter pylori, H. pylori strain no 38, read-out: MIC
[47] = Helicobacter pylori, H. pylori strain no 9, read-out: MIC
[48] = Helicobacter pylori, H. pylori strain no 29, read-out: MIC

CC1(C)S[C@@H]2[C@H](NC(=O)[C@H](N)c3ccc(O)cc3)C(=O)N2[C@H]1C(=O)O [Amoxicillin]
0.06 µg/mL: MIC [1, 4] | MIC [1, 5] | MIC [1, 6] | MIC [1, 7] | MIC [1, 8] | MIC [1, 9] | MIC [1, 10] | MIC [1, 11] | MIC [1, 12] | MIC [1, 13] | MIC [1, 14] | MIC [1, 15] | MIC [1, 16] | MIC [2, 17] | MIC [2, 18] | MIC [2, 19] | MIC [2, 20] | MIC [2, 21] | MIC [2, 22] | MIC [2, 23] | MIC [2, 24] | MIC [2, 25] | MIC [2, 26] | MIC [2, 27] | MIC [2, 28] | MIC [2, 29] | MIC [2, 30] | MIC [2, 31] | MIC [2, 32] | MIC [2, 33] | MIC [2, 34] | MIC [2, 35] | MIC [2, 36] | MIC [2, 37] | MIC [2, 38] | MIC [2, 39] | MIC [2, 40] | MIC [2, 41] | MIC [2, 42] | MIC [2, 43] | MIC [2, 44] | MIC [2, 45]

CSCCCCCN=C=S [Bertoin]
less active: activity as inducers relative to sulforaphane and sulforaphene [3]

CC[C@H]1OC(=O)[C@H](C)[C@@H](O[C@H]2C[C@@](C)(OC)[C@@H](O)[C@H](C)O2)[C@H](C)[C@@H](O[C@@H]2O[C@H](C)C[C@H](N(C)C)[C@H]2O)[C@](C)(OC)C[C@@H](C)C(=O)[C@H](C)[C@@H](O)[C@]1(C)O [Clarithromycin]
0.06 µg/mL: MIC [1, 4] | MIC [1, 5] | MIC [1, 6] | MIC [1, 7] | MIC [1, 9] | MIC [2, 17] | MIC [2, 20] | MIC [2, 21] | MIC [2, 22] | MIC [2, 23] | MIC [2, 24] | MIC [2, 47] | MIC [2, 25] | MIC [2, 26] | MIC [2, 27] | MIC [2, 28] | MIC [2, 29] | MIC [2, 30] | MIC [2, 31] | MIC [2, 32] | MIC [2, 33] | MIC [2, 34] | MIC [2, 35] | MIC ([2]; Helicobacter pylori, H. pylori strain no 21, read-out: MIC) | MIC [2, 37] | MIC [2, 38] | MIC [2, 39] | MIC [2, 40] | MIC [2, 41] | MIC [2, 48] | MIC [2, 43] | MIC [2, 44] | MIC [2, 45]
2 µg/mL: MIC [2, 36]
4 µg/mL: MIC [1, 10]
0.5 µg/mL: MIC [1, 46]
8 µg/mL: MIC [1, 14]
16 µg/mL: MIC [1, 11] | MIC [1, 12] | MIC [1, 13] | MIC [1, 15] | MIC [1, 16]
0.125 µg/mL: MIC ([1]; H. pylori strain no 34) | MIC ([1]; Helicobacter pylori) | MIC ([2]; H. pylori strain no 2) | MIC ([2]; H. pylori strain no 28) | MIC ([2]; Helicobacter pylori)

Cc1ncc([N+](=O)[O-])n1CCO [Metronidazole]
256 µg/mL: MIC ([1]; Helicobacter pylori, H. pylori strain no 34, read-out: MIC) | MIC [1, 8]
1 µg/mL: MIC [1, 11] | MIC [1, 12] | MIC [2, 17] | MIC [2, 18] | MIC [2, 19] | MIC [2, 20] | MIC [2, 47] | MIC [2, 27] | MIC [2, 28] | MIC [2, 32] | MIC [2, 33] | MIC [2, 39] | MIC [2, 40] | MIC [2, 48] | MIC [2, 45]
64 µg/mL: MIC [1, 5] | MIC [1, 6] | MIC [1, 7] | MIC [1, 46] | MIC [1, 9] | MIC [1, 16]
0.5 µg/mL: MIC [1, 13] | MIC [2, 24] | MIC [2, 25] | MIC [2, 31] | MIC [2, 38] | MIC [2, 42] | MIC [2, 43]
2 µg/mL: MIC [1, 14]
4 µg/mL: MIC [2, 21]
16 µg/mL: MIC [1, 10]
0.06 µg/mL: MIC [2, 22] | MIC [2, 23] | MIC [2, 29] | MIC [2, 30] | MIC [2, 37] | MIC [2, 41]
0.25 µg/mL: MIC [2, 26] | MIC [2, 44]
32 µg/mL: MIC [1, 4] | MIC [1, 15]

C[S+]([O-])CCCCCN=C=S (stereo not drawn) [alyssin]
less active: activity as inducers relative to sulforaphane and sulforaphene [3]

CS(=O)(=O)CCCN=C=S [cheirolin]
less active: activity as inducers relative to sulforaphane and sulforaphene [3]

CS(=O)(=O)CCCCN=C=S [erysolin]
less active: activity as inducers relative to sulforaphane and sulforaphene [3]

C[S+]([O-])CCCN=C=S (stereo not drawn) [iberin]
less active: activity as inducers relative to sulforaphane and sulforaphene [3]

CSCCCN=C=S [iberverin]
less active: activity as inducers relative to sulforaphane and sulforaphene [3]
